This is an account of results in article PMC7697893, “Novel 1-Amidino-4-Phenylpiperazines as Potent Agonists at Human TAAR1 Receptor: Rational Design, Synthesis, Biological Evaluation and Molecular Docking Studies” (Pharmaceuticals, 2020).

On the set-up of series [1]: method as in PMID 5169226. As to conditions: rats, intraperitoneal, 100 mg/kg; cited from earlier work.
A further series deals with T1, hTAAR1 (Homo sapiens, UniProt Q96RJ0).
T1 construct: expressed in transfected cells; host or cells: HEK-293T (ATCC)
T1 sequence (Q96RJ0 1-339): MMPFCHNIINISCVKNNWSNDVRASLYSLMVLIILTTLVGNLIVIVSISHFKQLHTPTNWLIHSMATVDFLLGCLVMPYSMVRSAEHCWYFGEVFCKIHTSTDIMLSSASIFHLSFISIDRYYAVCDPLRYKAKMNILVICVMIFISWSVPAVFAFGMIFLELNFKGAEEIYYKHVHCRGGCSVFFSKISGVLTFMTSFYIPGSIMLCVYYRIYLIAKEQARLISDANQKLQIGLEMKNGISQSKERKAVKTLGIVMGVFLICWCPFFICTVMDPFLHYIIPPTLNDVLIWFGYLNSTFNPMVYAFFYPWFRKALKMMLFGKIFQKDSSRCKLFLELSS
Briefly: Functional activity at hTAAR1, cAMP BRET biosensor in HEK-293T cells. The series is classed as cell-based. As to conditions: for Emax at 10 µM: HEK-293T, read-out: hTAAR1 Activity; for EC50: dose–response 10 nM to 10 μM, means of 4 experiments, errors within 10%, read-out: hTAAR1 EC50. The procedure:
The activity of the compounds was measured using human embryonic kidney 293 (HEK-293T) cells co-transfected with plasmids encoding hTAAR1 and a cAMP Bioluminescence Resonance Energy Transfer (BRET) biosensor, or empty vector as a control. TYR was used as a positive control for agonism. Firstly, all the compounds were tested at 10 μM either for agonistic or antagonistic activity.
BRET screening was described in detail elsewhere. HEK-293T (ATCC) cells were transiently сo-transfected with plasmids encoding hTAAR1 and a cAMP BRET biosensor using Lipofectamine® (ThermoFisher) reagent, and then plated in 96-well plates (Corning) at […] per well. On the following day, culture medium was removed and 70 μL of phosphate-buffered saline containing calcium and magnesium was added to each well, followed by the addition of 10 μL […] 3-isobutyl-1-methylxanthine solution (Sigma), and 10 μL 50 μM coelenterazine-h solution (Promega). All tested compounds were dissolved in DMSO to yield 10 mM stock solutions. After 10 min incubation, either 10 μL of vehicle or 10× of the concentrated solution of compound to be tested (10 μM final concentration) was added. Readings were collected using a Mithras LB943 multimodal plate reader (Berthold Technologies). The BRET signal is determined by calculating the ratio of the light emitted at 505 to 555 nm to the light emitted at 465 to 505 nm.
Curves were fitted by applying non-linear regression models on GraphPad Prism 6 (GraphPad Software).
Background: BRET reads energy transfer from a luciferase to a nearby fluorophore.

Series [2] in a line: Cell cytotoxicity assay (MTT) on Vero-76 cells. Type of series: cell-based, Cercopithecus Aethiops. The note with it: Cercopithecus aethiops (African green monkey), Vero-76 cells; MTT method, 48–96 h; CC50±SEM. The procedure: (§1) Vero-76 cells (ATCC CRL 1587 Cercopithecus Aethiops) were seeded at an initial density of 4 × 10^5 cells/mL in 24-well plates, in culture medium (Dulbecco’s Modified Eagle Medium (D-MEM) with L-glutamine, supplemented with fetal bovine serum (FBS), 0.025 g/L kanamycin). Cell cultures were then incubated at 37 °C in a humidified, 5% CO2 atmosphere in the absence or presence of serial dilutions of test compounds. Cell viability was determined after 48–96 h at 37 °C by the MTT staining method. The results are expressed as CC50, which is the concentration of compound necessary to inhibit cell growth by 50%. Each CC50 value is the mean and standard deviation of at least three separate experiments performed in duplicate.

In the next series the test system is Vero-76 cells. Briefly: Cell cytotoxicity assay (MTT) on Vero-76 cells. Type of series: cell-based, Cercopithecus Aethiops. As to conditions: ratio of Vero-76 CC50 to hTAAR1 EC50. The procedure:
as §1

On the set-up of series [3]: method as in PMID 5719030. The note with it: potentiating pressor effect of tyramine and NE; cited from earlier work.
The test system of a further series is human hepatocyte. The note with it: cited from earlier work.
For series [4] the following is noted: cited from earlier work.

A word on the melting point: it is the temperature, or range, at which the solid turns liquid. For orientation: EC50 means the concentration giving half of the maximal effect. A word on the CC50: it is the concentration that lowers cell viability or growth by half. `Cl.N=C(N)N1CCN(c2ccccc2)CC1` [Compound 1, 4-Phenylpiperazine-1-carboximidamide hydrochloride] displayed a melting point of 214 to 217 °C. Further, in series [1], the “increase of the concentration of NE in the brain” value was “about 34.5%” and the “increase of the concentration of NE in the heart” value is given as roughly 42.7%. Besides, at hTAAR1, the Emax at 10 µM amounted to 71% and the EC50 turned out to be 0.37 µM. This compound also had a CC50 in series [2] of 84 ± 5 µM. For the same compound, the “Therapeutic index (CC50/EC50)” value in the series on Vero-76 cells was 227. Further, the sympathomimetic effect entry in series [3] is “a rise in the blood pressure”.

For the compound `Cc1c(F)cccc1[C@H]1COC(N)=N1` [RO5263397], the human hepatocyte clearance entry with human hepatocyte is listed as “acceptable”. Further, in series [4], the AMES/MNT test entry was “negative”.

Take `Cl.N=C(N)N1CCN(c2cccc(Cl)c2)CC1` [Compound 4, 4-(3-Chlorophenyl)piperazine-1-carboximidamide hydrochloride]: on hTAAR1, the Emax at 10 µM is 35% and the EC50 is greater than 2 µM. Also, it took 90 ± 3 µM to reach half-maximal cytotoxicity in series [2] (CC50). In addition, the “Therapeutic index (CC50/EC50)” value in the series with Vero-76 cells is given as 45. Also, the sympathomimetic effect result in series [3] is reported as “a rise in the blood pressure”.
